The record followed here is patent US8124635B2, “Antimicrobial composition useful for preserving wood” (Rohm and Haas Company, priority 2006, dated 2012).

Read-outs that look alike come from different tables or passages of the source.

Usually MIC stands for the smallest concentration in the dilution series that meets the test's criterion for growth inhibition.

What all share (assay type): cell-based
The subject of assay [1] is Pseudomonas aeruginosa (Ps. aeruginosa—ATCC # 9027). The assay can be described thus: Microtiter plate MIC / synergy test (Kull synergy index), M9GY medium, 30° C. The note with it: for MIC: Pseudomonas aeruginosa, read-out: MIC of the component acting alone (end point); for Cb = Component B (OIT), end-point concentration (MIC), alone or in mixture: Component A propiconazole; for Ca = Component A (propiconazole), end-point concentration (MIC), alone or in mixture: Component B OIT. The text has this: (§1) One measure of synergism is the industrially accepted method described by Kull, F. C.; Eisman, P. C.; Sylwestrowicz, H. D. and Mayer, R. L., in Applied Microbiology 9:538-541 (1961), using the ratio determined by the formula: Ca/CA+Cb/CB=Synergy Index (“SI”) wherein: • CA=concentration of compound A (first component) in ppm, acting alone, which produced an end point (MIC of Compound A). • Ca=concentration of compound A in ppm, in the mixture, which produced an end point. • CB=concentration of compound B (second component) in ppm, acting alone, which produced an end point (MIC of Compound B). • Cb=concentration of compound B in ppm, in the mixture, which produced an end point.
(§2) When the sum of Ca/CA and Cb/CB is greater than one, antagonism is indicated. […] The lower the SI, the greater the synergy shown by that particular mixture. The minimum inhibitory concentration (MIC) of an antimicrobial compound is the lowest concentration tested under a specific set of conditions that prevents the growth of added microorganisms.
(§3) Synergy tests were conducted using standard microtiter plate assays with media designed for optimal growth of the test microorganism. Minimal salt medium supplemented with 0.2% glucose and 0.1% yeast extract (M9GY medium) was used for bacteria testing; Potato Dextrose Broth (PDB medium) was used for yeast and mold testing. In this method, a wide range of combinations of microbicides was tested by conducting high resolution MIC assays in the presence of various concentrations of biocides. High resolution MICs were determined by adding varying amounts of microbicide to one column of a microtitre plate and doing subsequent ten-fold dilutions using an automated liquid handling system to obtain a series of end points ranging of active ingredient. The synergy of the combinations of the present invention was determined against two bacteria, Pseudomonas aeruginosa (Ps. aeruginosa—ATCC # 9027) and Staphylococcus aureus (S. aureus—ATCC # 6538), a yeast, Candida albicans (C. albicans—ATCC # 10231), and a mold, Aspergillus niger (A. niger—ATCC 16404). The bacteria were used at a concentration of about 1-6×10^6 bacteria per mL and the yeast and mold at 1−5×10^5 fungi per mL. These microorganisms are representative of natural contaminants in many consumer and industrial applications. […] (yeast and mold) or 30° C. (bacteria).

Assay [2] deals with Staphylococcus aureus (S. aureus—ATCC # 6538). Described as above. The note with it: for MIC: Staphylococcus aureus, read-out: MIC of the component acting alone (end point); for Cb = Component B (OIT), end-point concentration (MIC), alone or in mixture: Component A propiconazole. Further details: Ca = Component A (tebuconazole), end-point concentration (MIC), alone or in mixture / Ca = Component A (propiconazole), end-point concentration (MIC), alone or in mixture: unit: ppm.
Text: as §1, §2, §3

Assay [3] concerns Gloeophyllum trabeum (G. trabeum—ATCC # 11593). The assay can be described thus: Application test: treated paper disc on Malt agar plate, fungal growth observed visually after 4 weeks. The note with it: G. trabeum ATCC # 11539, contact time 4 weeks. How it is done:
(§4) An application test was performed to evaluate synergy of DCOIT/thifluzamide alone and in combination against Gloeophyllum trabeum (G. trabeum—ATCC # 11593) and Trametes vesicolor (T. vesicolor—ATCC # 4262). A paper disc was dipped in the treatment solution, air dried and placed on Malt agar plate streaked with the test organisms. The surface of the disc was also swabbed with the test organisms. The agar plates were incubated at 25° C. for 4 weeks. Fungal growth was then observed visually.

Assay [4] relates to Trametes vesicolor (T. vesicolor—ATCC # 4262). The description is as above. The note with it: T. vesicolor ATCC # 42462, contact time 4 weeks. The method, then: as §4
The subject of assay [5] is Candida albicans (C. albicans—ATCC # 10231). Description: Microtiter plate MIC / synergy test (Kull synergy index), PDB medium, 25° C. The note with it: for MIC of the component acting alone (end point) / MIC: C. albicans; for Cb = Component B (OIT), end-point concentration (MIC), alone or in mixture: Component A propiconazole; for MIC: Candida albicans, read-out: MIC of the component acting alone (end point). Further details: Ca = Component A (tebuconazole), end-point concentration (MIC), alone or in mixture / Ca = Component A (propiconazole), end-point concentration (MIC), alone or in mixture: unit: ppm.
Text: as §1, §2, §3

Assay [6] has as its system Aspergillus niger (A. niger—ATCC 16404). The description is as above. The note with it: for MIC: Aspergillus niger, read-out: MIC of the component acting alone (end point).
Text: as §1, §2, §3

Where [7] appears, read: ATCC9027, 24 h, Ps. aeruginosa, contact time 24 hour.
The mark [8] stands for this setting: ATCC9027, 48 h, Ps. aeruginosa, contact time 48 hour.
Setting [9] is: ATCC6538, 24 h, S. aureus, contact time 24 hour.
Where [10] appears, read: ATCC6538, 48 h, S. aureus, contact time 48 hour.
Setting [11] is: Ps. aeruginosa, contact time 24 hour.
[12] abbreviates: S. aureus, contact time 24 hour.
[13] abbreviates: S. aureus, contact time 48 hour.
Setting [14] is: Ps. Aeruginosa ATCC # 9027, contact time 24 hour.
[15] abbreviates: Ps. Aeruginosa ATCC # 9027, contact time 48 hour.
The mark [16] stands for this setting: ATCC10231, 24 h, contact time 24 hour.
The mark [17] stands for this setting: ATCC16404, 72 h, A. niger, contact time 3 days.
[18] abbreviates: ATCC16404, 168 h, A. niger, contact time 7 days.
Setting [19] is: C. albicans ATCC # 10231, contact time 24 hour, Component B CMIT/MIT.
[20] abbreviates: C. albicans ATCC # 10231, contact time 24 hour, Component B copper 8-hydroxyquinoline.
Where [21] appears, read: C. albicans ATCC # 10231, contact time 48 hour, Component B copper 8-hydroxyquinoline.
The mark [22] stands for this setting: S. aureus, contact time 24 hour, Component B CMIT/MIT.
Setting [23] is: S. aureus, contact time 24 hour, Component B copper 8-hydroxyquinoline.
Setting [24] is: S. aureus, contact time 48 hour, Component B copper 8-hydroxyquinoline.
Where [25] appears, read: A. niger ATCC # 16404, contact time 3 days, Component B copper 8-hydroxyquinoline.
Setting [26] is: A. niger ATCC # 16404, contact time 7 days, Component B copper 8-hydroxyquinoline.

As for `CCCCCCCCn1sc(Cl)c(Cl)c1=O` [DCOIT, 4,5-dichloro-2-n-octyl-4-isothiazolin-3-one], the MIC in assay [1] (setting [7]) was found to be 3.2 µg/mL; in assay [1] (setting [8]), 5.3 µg/mL; in assay [2] (setting [9]), 0.1 µg/mL; in assay [2] (setting [10]) it was 0.4 µg/mL. The “Ca = Component A (DCOIT), end-point concentration, alone or in mixture” value in assay [3] (Component B thifluzamide) and in assay [4] (Component B thifluzamide) was 320 each time.
Regarding `CCCCNC(=O)OCC#CI` [IPBC, 3-iodo-2-propynyl-butylcarbamate], the “MIC of the component acting alone (end point)” value (“MIC … (end point)” for short) in assay [1] (setting [11]) is on record as 263 ppm; in assay [1] (Ps. aeruginosa, contact time 48 hour), 263 ppm; in assay [5] (contact time 24 hour) it was 4.2 ppm; in assay [5] (contact time 48 hour) it was 4.2 ppm; in assay [2] (setting [12]), 34 ppm; in assay [2] (setting [13]) it was 42 ppm. The “MIC … (end point)” value in assay [6] (A. niger, contact time 3 days) worked out at 0.4 ppm.
For `Cn1sccc1=O` [MI, 2-methyl-4-isothiazolin-3-one], the minimum inhibitory concentration (MIC) in assay [1] (ATCC9027, 24 h) was found to be 20 µg/mL; in assay [1] (ATCC9027, 48 h) it was 20 µg/mL; in assay [2] (ATCC6538, 24 h), 30 µg/mL; in assay [2] (ATCC6538, 48 h), 40 µg/mL; in assay [6] (ATCC16404, 72 h) it was 450 µg/mL; in assay [6] (ATCC16404, 168 h), 450 µg/mL.
`CCCCCCCCn1sccc1=O` [OIT, 2-n-octyl-4-isothiazolin-3-one]: the “Cb = Component B (OIT), end-point concentration (MIC), alone or in mixture” value is reported as 390 in assay [1] (setting [14]); 525 in assay [1] (setting [15]); 1.3 in assay [5] (C. albicans ATCC # 10231, contact time 24 hour); 1.3 in assay [5] (C. albicans ATCC # 10231, contact time 48 hour); 63 in assay [2] (setting [12]); 78 in assay [2] (setting [13]). For the same compound, the “MIC … (end point)” value in assay [1] (setting [11]) is given as 390 ppm; in assay [5] (contact time 24 hour), 0.9 ppm. Moreover, the minimal inhibitory concentration (MIC) in assay [1] (setting [7]) was found to be 390 µg/mL; in assay [1] (setting [8]), 415 µg/mL; in assay [5] (setting [16]), 0.6 µg/mL; in assay [5] (ATCC10231, 48 h, contact time 48 hour), 0.9 µg/mL; in assay [2] (setting [9]), 63 µg/mL; in assay [2] (setting [10]), 78 µg/mL. Also, the minimal inhibitory concentration (MIC) in assay [6] (setting [17]) and in assay [6] (setting [18]) was 3.3 µg/mL in each case.
Regarding `CCCC1COC(Cn2cncn2)(c2ccc(Cl)cc2Cl)O1` (stereo not shown) [propiconazole], the “Ca = Component A (propiconazole), end-point concentration (MIC), alone or in mixture” value (from here on “Ca = Component A (propiconazole)”) is listed as 800 in assay [1] (setting [14]); 800 in assay [1] (setting [15]); 50 in assay [5] (setting [19]); 50 in assay [5] (C. albicans ATCC # 10231, contact time 24 hour, Component B OIT); 50 in assay [5] (setting [20]); 50 in assay [5] (C. albicans ATCC # 10231, contact time 48 hour, Component B OIT). Moreover, the “Ca = Component A (propiconazole)” value is 50 in assay [5] (setting [21]); 100 in assay [2] (setting [22]); 100 in assay [2] (S. aureus, contact time 24 hour, Component B OIT); 100 in assay [2] (setting [23]); 100 in assay [2] (S. aureus, contact time 48 hour, Component B OIT); 100 in assay [2] (setting [24]). Moreover, the “Ca = Component A (propiconazole)” value in assay [6] (A. niger ATCC # 16404, contact time 3 days, Component B CMIT/MIT) stood at 20; in assay [6] (setting [25]), 20; in assay [6] (setting [26]) it was 25. Further, the MIC in assay [2] (setting [9]) came out at 100 µg/mL; in assay [6] (setting [17]), 20 µg/mL; in assay [6] (setting [18]), 20 µg/mL.
Consider `CC(C)(C)C(O)(CCc1ccc(Cl)cc1)Cn1cncn1` (stereo not shown) [tebuconazole], for which the “Ca = Component A (tebuconazole), end-point concentration (MIC), alone or in mixture” value came out at 900 in assay [1] (Ps. Aeruginosa ATCC # 9027, contact time 24 hour, Component B copper 8-hydroxyquinoline); 50 in assay [5] (setting [19]); 60 in assay [5] (setting [20]); 50 in assay [5] (C. albicans ATCC # 10231, contact time 48 hour, Component B CMIT/MIT); 60 in assay [5] (setting [21]); 50 in assay [2] (setting [22]). Moreover, the “Ca = Component A (tebuconazole), end-point concentration (MIC), alone or in mixture” value in assay [2] (setting [23]) came out at 50; in assay [2] (S. aureus, contact time 48 hour, Component B CMIT/MIT), 50; in assay [2] (setting [24]), 50; in assay [6] (setting [25]) it was 8; in assay [6] (setting [26]), 8. Moreover, the MIC in assay [1] (setting [7]) is 900 µg/mL; in assay [1] (setting [8]), 900 µg/mL; in assay [5] (setting [16]), 50 µg/mL; in assay [2] (setting [9]), 50 µg/mL; in assay [2] (setting [10]), 50 µg/mL; in assay [6] (setting [17]), 8 µg/mL. Besides, the MIC in assay [6] (setting [18]) was determined as 8 µg/mL.
For the compound `Cc1nc(C(F)(F)F)c(C(=O)Nc2c(Br)cc(OC(F)(F)F)cc2Br)s1` [thifluzamide], the “Cb = Component B (thifluzamide), end-point concentration, alone or in mixture” value in assay [3] (Component A DCOIT) was above 960; in assay [4] (Component A DCOIT), 320.
